For two compounds, IC50 results are on record in patent US7531544B2, “Xanthine phosphodiesterase V inhibitors” (Schering Corporation, priority 2000, dated 2009).

For this test, the target named is PDE V (Homo sapiens, UniProt O76074). The test can be described thus: PDE V enzyme inhibition (PDE V IC50). It is filed as biochemical.

What is called IC50 is the concentration needed to halve the response being measured. A low value points to higher potency. Regarding `COc1ccc(Cn2c(NC3CCCC3CO)nc3c2c(=O)n(C)c(=O)n3C)cc1` (centres unmarked) [Compound 13], the IC50 is 15 to 100 nM.
For the compound `COc1ccc(Cn2c(N[C@@H]3CCc4ccccc43)nc3c2c(=O)n(C)c(=O)n3C)cc1` [Compound 95], the IC50 lay in the range of 5 to 10 nM.
